For data set [1], the system named is patients with macular degeneration. Kind of data set: Macular degeneration clinical study (adjuvant to verteporfin photodynamic therapy). Type of data set: in vivo. The following applies: about 300 mg/day for 20 weeks as adjuvant to verteporfin photodynamic therapy. Here is the method: Forty patients with macular degeneration are divided into two groups. The first group receives conventional treatment for closing the leaking choroidal vessels (characteristic of this disease) by photodynamic therapy with verteporfin (see for example Ophthalmol. 117:1329-1345 (1999). The second group receives the same conventional therapy with verteporfin with 1-(5-(1H-1,2,4-triazol-5-yl)(1H-indazol-3-yl))-3-(2-piperidylethoxy)benzene at about 300 mg/day as an adjuvant for 20 weeks.
The first group, without 1-(5-(1H 1,2,4-triazol-5-yl)( 1 H-indazol-3-yl))-3-(2-piperidylethoxy)benzene, however will experience progressive reperfusion of the ablated vessels several weeks after treatment. Progressive visual loss follows which requires the photodynamic therapy to be repeated.

Data set [2] in a line: Brain-blood plasma distribution in vivo. The following applies: rat, 10 mg/kg intravenously, 2 hr post-dose. More on the design: species or system Sprague-Dawley rats. On the procedure:
5-Amino-anthra(9,1-cd)isothiazol-6-one was administered intravenously (10 mg/kg) into the veins of Sprague-Dawley rats. After 2 hr, blood samples were obtained from the animals and their vascular systems were perfused with approximately 100 mL of saline to rid their brains of blood. The brains were removed from the animals, weighed, and homogenized in a 50 mL conical tube containing 10 equivalents (w/v) of methanol/saline (1:1) using a Tissue Tearer (Fischer Scientific). The homogenized material was extracted by adding 600 μL of cold methanol to 250 μL of brain homogenate vortexed for 30 sec and subjected to centrifugation for 5 min. After centrifugation, 600 μL of the resulting supernatant was transferred to a clean tube and evaporated at room temperature under reduced pressure to provide a pellet. […] The brain homogenate analysis samples, plasma analysis samples, and standard analysis samples were analyzed and compared using HPLC by injecting 100 μL of a sample onto a 5 μm C-18 Luna column (4.6 mm×150 mm, commercially available from Phenomenex of Torrance, Calif.) and eluting at 1 mL/min with a linear gradient of 30% aqueous acetonitrile containing 0.1% trifluoroacetic acid to 90% aqueous acetonitrile containing 0.1% trifluoroacetic acid over 8 minutes and holding at 90% aqueous acetonitrile containing 0.1 % trifluoroacetic acid for 3 min. with absorbance detection at 450 nm. […]

For data set [3], the system named is rat ventral mesencephalan neurons. The experiment in a line: [3H]Dopamine cell culture assay (6-OHDA neurotoxicity). Format: cell-based. The following applies: 6-OHDA 30 μM, uptake 22 hours later. Here is the method: Cultures of dopaminergic neurons were prepared according to a modification of the procedure described by Raymon and Leslie (J. Neurochem. 62:1015-1024, 1994). Time-mated pregnant rats were sacrificed on embyronic day 14-15 (crown rump length 11-12 mm) and the embryos removed by cesarean section. The ventral mesencephalon, containing the dopaminergic neurons, was dissected from each embryo. Tissue pieces from approximately 48 embryos were pooled and dissociated both enzymatically and mechanically. An aliquot from the resulting cell suspension was counted and the cells were plated in high glucose DMEM/F12 culture medium with 10% fetal bovine serum at a density of 1×10^5 cells/well of a Biocoat poly-D-lysine-coated 96-well plate. The day following plating was considered 1 day in vitro (DIV). Cells were maintained in a stable environment at 37° C., 95% humidity, and 5% CO2. A partial medium change was performed at 3 DIV. […]
[^3H]Dopamine uptake is used as a measure of the health and integrity of dopaminergic neurons in culture (Prochiantz et al., PNAS 76: 5387-5391, 1979). […] Briefly, cells treated with 6-OHDA in the presence and absence of 5-amino-anthra(9, 1-cd)isothiazol-6-one were assessed in the uptake assay 22 hrs after exposure to 6-OHDA. […] Radioactivity was removed and the cultures were washed 3x with ice cold PBS. […]

Data set [4] can be described thus: Solubility in aqueous media. Type of data set: physicochemical.

The values that follow come from patent US20040092568A1, “Methods for the treatment, prevention and management of macular degeneration” (priority 2002, published 2004).

On to `c1cc(OCCC2CCCCN2)cc(-c2n[nH]c3ccc(-c4ncn[nH]4)cc23)c1` (stereo not shown) [1-(5-(1H-1,2,4-triazol-5-yl)(1H-indazol-3-yl))-3-(2-piperidylethoxy)benzene], for which the “effect on neovascular cascade / duration of photodynamic therapy effect” value in data set [1] is on record as “neovascular cascade is sufficiently hindered”.

As for `Nc1ccc2snc3c2c1C(=O)c1ccccc1-3` [5-amino-anthra(9,1-cd)isothiazol-6-one], the brain-drug concentration entry in data set [2] was “approximately 65 nmole/g”. For the same compound, the “protection of dopaminergic neurons from 6-OHDA ([3H]dopamine uptake)” value in data set [3] was “protects rat ventral mesencephalan neurons from the toxic effects of 6-OHDA”. Also, the “solubility in aqueous media” value in data set [4] is reported as “limited solubility”.
